Data reported in US20260263551A1, “TREATING CONDITIONS WITH HYPOGLYCEMIA ASSOCIATED WITH HYPERINSULINEMIA” (RESILIUN B.V., priority 2022, published 2026).
Where a SMILES comes first, the peptide text is derived from it.

Experiments:
[1] = in vivo; cited from earlier work
[2] = system: fibroblasts and monocytes; conditions: cited from earlier work
[3] = system: human skin fibroblast; conditions: cited from earlier work
[4] = system: Na+, K+-ATPase; conditions: cited from earlier work
[5] = system: Na+, K+-ATPase; conditions: rat renal tubular segments; peptides tested at 5×10^-7 mol/l; cited from earlier work
[6] = system: Na+, K+-ATPase; conditions: purified preparation of Na+,K+-ATPase; cited from earlier work
[7] = system: mTOR; conditions: piglets; cited from earlier work
[8] = system: human pulmonary microvascular endothelial cells (Hpmec); assay: Microvascular angiogenesis (sprouting) assay in Matrigel; type: cell-based; conditions: t=16, 24 and 40h (P=0.48, 0.011 and 0.032)
Text: Microvascular angiogenesis assay of human pulmonary microvascular endothelial cells grown in Matrigel as determinant of ERC-reactivity and in response to increasing concentrations of GXXP-peptides 3, 6 and 8, (VGVAPGVGVAPGVGVAPG, QVGQVELGGGPGAGSLQP and GAYPGAPGAYPGAPAPGV, taken from the exon 24 region of human elastin, from the mid-portion of human C-peptide, and from the N-terminal portion of human Galectin-3, FIGS. 4a, 4b and 4c, respectively). Data shown are total tube length measurements and total branch length measurements at t=24 h. * p<0.05; ** p<0.01; *** p<0.001. At 4 h no angiogenic activity of the various peptides was as yet observed.
As measuring insulin resistance in vitro is a cumbersome feat, the effect of three elastin fragment peptides and related GXXP-peptides on endothelial cell sprouting were assessed instead. Endothelial cells (Hpmec, n=4) were serum starved for 24 hours, trypsinised and seeded in growth factor-reduced Matrigel. […] Sprouting by means of mean total tube length and mean total branch length per field of view were quantified with ImageJ software. […]
Pictures were analyzed using the plug-in angiogenesis analyzer in ImageJ. […]

[9] = single infusion, healthy adults; cited from earlier work
[10] = infants >2 years of age; cited from earlier work

In the case of `C[C@@H](O)[C@@H]1NC(=O)[C@H](CCCCN)NC(=O)[C@@H](Cc2c[nH]c3ccccc23)NC(=O)[C@H](Cc2ccccc2)NC(=O)[C@@H](NC(=O)[C@H](N)Cc2ccccc2)CSSC[C@@H](C(=O)N[C@H](CO)[C@@H](C)O)NC1=O` [octreotide], the half-life [1] is listed as “around 100 min”.

For “VGVAPG [Chemotactic Domain of Elastin, Bachem product number 4010536]”, the chemotactic activity [2] is given as “chemotactic for fibroblasts and monocytes” and the fibroblast proliferation [3] is given as “stimulated human skin fibroblast proliferation”.

For `CN(C)CCCn1cc(C2=C(c3c[nH]c4ccccc34)C(=O)NC2=O)c2ccccc21` [G F109203X], the “effect on C-peptide stimulation of 86Rb+ uptake” value ([4]; 1 μM preincubation, PKC inhibitor) is given as “abolished”.

In the case of “human C-peptide: cleavage product of the proinsulin molecule (RREAEDLQVGQVELGGGPGAGSLQPLALEGSLQKR)”, the “stimulation of 86Rb+ uptake” value ([4]; 5 nM, 37° C., 10 min, HRTCs) is given as 40%.

For EVARQ, the “activity relative to intact C-peptide” value [5] is given as 100% and the “direct activation of isolated ATPase” value [6] is given as “No measurable activation”.

In the case of “ELGGGPEAG [PG-domain peptide of rat C-peptide 1]”, the “direct activation of isolated ATPase” value [6] is given as “No measurable activation”.

For EGSLQ, the “activity relative to the intact molecule” value ([4]; HRTCs) is listed as 57% and the “activity relative to intact C-peptide” value [5] is listed as 75%.

For `COc1cccc(-c2cc(=O)c3ccccc3o2)c1N` [PD98059], the “effect on C-peptide-stimulated Na+,K+-ATPase activation, α1-subunit phosphorylation and translocation to BLM” value ([4]; 20 μM, MEK1/2 inhibitor) is listed as “abolished”.

For `C[C@H](N)C(=O)N[C@@H](CCC(N)=O)C(=O)O` [AQ, Alanyl-glutamine] (H-Ala-Gln-OH), the “autophagy / mTOR modulation” value [7] is given as “autophagy-inhibition”.

In the case of `CC(=O)N[C@H]1[C@H]([C@H](O)[C@H](O)CO)OC(C(=O)O)=C[C@@H]1O` [DANA, 2,3-dehydro-2-deoxy-N-acetylneuraminic acid], the “effect on the angiogenic effects of peptide 3” value [8] is reported as “significantly potentiated”.

B1: XOMA 358: antibody XOMA 358 (aka RZ358), monoclonal antibody given by infusion (antibody, chains of the INN, looked up, V domains shown)
VH: EVQLVETGGGVVQPGRSLRLSCAASGFTFSSYAMHWVRQAPGKGLEWYAVISYDGSNKYYADSVKGRFTISRDNSKNTLYLQMNSLRAEDTAVYYCARHEWGFGMDVWGQGTTVTVSS
VL: DVVMTQSPLSLSVTLGQPASISCRSSLSLVYGDENTYLNWFQQRPGQSPRRLLYKVSDRDSGVPDRFSGSGSGTDFTLKISRVEADDVGVYYCMQGTHWPYTFGQGTKLEIK
For B1, the insulin sensitivity [9] is listed as “dose-dependent reduction in insulin sensitivity” and the hypoglycemia [10] is listed as “reduction of hypoglycemia”.
